Experiments:
[1] = target: Phosphatidylinositol 4-phosphate 5-kinase type-1 alpha (Homo sapiens) (UniProt Q99755); conditions: Compound concentration 1000.0 nM
[2] = test system: Tyrosine-protein kinase ABL1 (Homo sapiens), P00519 [F317I]; conditions: Compound concentration 1000.0 nM
[3] = target: Mitogen-activated protein kinase 4 (Homo sapiens) (UniProt P31152); conditions: Compound concentration 1000.0 nM
[4] = target: Calcium/calmodulin-dependent protein kinase type II subunit gamma (Homo sapiens) (UniProt Q13555); conditions: Compound concentration 1000.0 nM
[5] = test system: Hepatocyte growth factor receptor (Homo sapiens), P08581 [M1250T]; conditions: Compound concentration 1000.0 nM
[6] = target: 5-hydroxytryptamine receptor 1D (Homo sapiens) (UniProt P28221); conditions: Compound concentration 10.0 uM
[7] = target: T1, Alpha-2B adrenergic receptor (Homo sapiens) (UniProt P18089); conditions: Compound concentration 10.0 uM
T1 sequence (whole entry): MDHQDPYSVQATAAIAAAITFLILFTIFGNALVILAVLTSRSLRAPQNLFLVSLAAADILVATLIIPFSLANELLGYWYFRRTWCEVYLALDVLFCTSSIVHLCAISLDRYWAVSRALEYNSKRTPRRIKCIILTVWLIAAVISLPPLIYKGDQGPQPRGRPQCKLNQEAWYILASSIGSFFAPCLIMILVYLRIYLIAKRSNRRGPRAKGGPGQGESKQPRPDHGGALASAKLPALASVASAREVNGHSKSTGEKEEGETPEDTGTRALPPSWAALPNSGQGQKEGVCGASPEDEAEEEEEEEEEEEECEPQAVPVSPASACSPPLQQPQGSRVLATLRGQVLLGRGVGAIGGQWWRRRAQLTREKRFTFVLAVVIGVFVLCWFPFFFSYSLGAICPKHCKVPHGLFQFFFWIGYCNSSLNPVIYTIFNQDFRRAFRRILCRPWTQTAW

[8] = target: Microtubule-associated serine/threonine-protein kinase 1 (Homo sapiens) (UniProt Q9Y2H9); conditions: Compound concentration 1000.0 nM
[9] = test system: Mast/stem cell growth factor receptor Kit (Homo sapiens), P10721 [A829P]; conditions: Compound concentration 1000.0 nM
[10] = target: Phosphatidylinositol 4-phosphate 5-kinase type-1 gamma (Homo sapiens) (UniProt O60331); conditions: Compound concentration 1000.0 nM
[11] = target: Alpha-2C adrenergic receptor (Homo sapiens) (UniProt P18825); conditions: Compound concentration 10.0 uM
Alpha-2C adrenergic receptor (Homo sapiens), sequence (P18825 whole entry): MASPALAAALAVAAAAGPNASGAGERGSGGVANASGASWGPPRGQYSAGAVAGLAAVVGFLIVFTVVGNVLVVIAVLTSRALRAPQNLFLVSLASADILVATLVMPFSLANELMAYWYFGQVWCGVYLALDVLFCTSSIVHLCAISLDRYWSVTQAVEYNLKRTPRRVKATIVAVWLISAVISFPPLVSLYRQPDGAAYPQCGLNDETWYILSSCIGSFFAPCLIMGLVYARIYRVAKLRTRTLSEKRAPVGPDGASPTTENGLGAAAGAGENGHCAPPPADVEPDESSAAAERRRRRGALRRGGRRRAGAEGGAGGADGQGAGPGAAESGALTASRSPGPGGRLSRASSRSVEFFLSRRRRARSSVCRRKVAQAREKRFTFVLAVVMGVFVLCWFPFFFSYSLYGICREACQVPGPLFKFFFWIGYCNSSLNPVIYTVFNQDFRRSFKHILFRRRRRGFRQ

[12] = target: Interleukin-1 receptor-associated kinase 1 (Homo sapiens) (UniProt P51617); conditions: Compound concentration 1000.0 nM
[13] = target: Dual specificity tyrosine-phosphorylation-regulated kinase 1A (Homo sapiens) (UniProt Q13627); conditions: Compound concentration 1000.0 nM
[14] = target: Kappa-type opioid receptor (Rattus norvegicus) (UniProt P34975); assay: k-Opioid (rat) CEREP ligand profiling; conditions: Compound concentration 10.0 uM
Kappa-type opioid receptor (Rattus norvegicus), sequence (P34975 whole entry): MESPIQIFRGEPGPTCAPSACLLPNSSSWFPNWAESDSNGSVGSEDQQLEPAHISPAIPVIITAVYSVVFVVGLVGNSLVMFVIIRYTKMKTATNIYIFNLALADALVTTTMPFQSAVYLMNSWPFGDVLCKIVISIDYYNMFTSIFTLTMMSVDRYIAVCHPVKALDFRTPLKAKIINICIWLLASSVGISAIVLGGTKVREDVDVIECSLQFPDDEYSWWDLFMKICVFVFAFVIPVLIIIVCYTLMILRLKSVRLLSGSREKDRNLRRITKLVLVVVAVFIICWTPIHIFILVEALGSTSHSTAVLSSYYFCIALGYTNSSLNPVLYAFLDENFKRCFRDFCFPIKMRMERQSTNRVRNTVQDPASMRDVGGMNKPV

[15] = target: Serine/threonine-protein kinase Nek5 (Homo sapiens) (UniProt Q6P3R8); conditions: Compound concentration 1000.0 nM
Serine/threonine-protein kinase Nek5 (Homo sapiens), sequence (Q6P3R8 whole entry): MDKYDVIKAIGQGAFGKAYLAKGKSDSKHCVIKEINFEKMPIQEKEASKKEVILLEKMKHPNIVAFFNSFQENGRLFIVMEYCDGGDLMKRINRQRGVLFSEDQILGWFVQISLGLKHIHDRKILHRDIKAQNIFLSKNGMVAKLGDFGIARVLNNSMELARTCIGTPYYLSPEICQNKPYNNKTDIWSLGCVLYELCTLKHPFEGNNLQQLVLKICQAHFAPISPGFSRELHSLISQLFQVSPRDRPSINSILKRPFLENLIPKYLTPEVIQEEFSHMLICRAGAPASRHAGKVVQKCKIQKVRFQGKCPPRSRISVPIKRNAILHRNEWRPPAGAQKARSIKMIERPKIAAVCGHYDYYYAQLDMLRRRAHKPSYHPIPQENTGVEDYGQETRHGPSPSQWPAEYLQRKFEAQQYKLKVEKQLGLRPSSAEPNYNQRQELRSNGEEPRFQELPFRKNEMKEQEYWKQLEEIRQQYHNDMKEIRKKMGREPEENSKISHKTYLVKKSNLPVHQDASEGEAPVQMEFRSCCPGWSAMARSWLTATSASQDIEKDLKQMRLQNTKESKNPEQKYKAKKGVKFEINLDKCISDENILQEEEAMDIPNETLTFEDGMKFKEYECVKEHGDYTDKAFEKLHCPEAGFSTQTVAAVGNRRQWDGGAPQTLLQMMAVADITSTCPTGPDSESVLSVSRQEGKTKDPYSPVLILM

[16] = target: Calcium/calmodulin-dependent protein kinase kinase 2 (Homo sapiens) (UniProt Q96RR4); conditions: Compound concentration 1000.0 nM
[17] = target: Vascular endothelial growth factor receptor 3 (Homo sapiens) (UniProt P35916); conditions: Compound concentration 1000.0 nM
[18] = test system: Tyrosine-protein kinase ABL1 (Homo sapiens), P00519 [E255K]; conditions: Compound concentration 1000.0 nM
[19] = target: Activin receptor type-2B (Homo sapiens) (UniProt Q13705); conditions: Compound concentration 1000.0 nM
[20] = target: Ephrin type-A receptor 8 (Homo sapiens) (UniProt P29322); conditions: Compound concentration 1000.0 nM
[21] = target: Ephrin type-B receptor 4 (Homo sapiens) (UniProt P54760); conditions: Compound concentration 1000.0 nM
[22] = target: Serine/threonine-protein kinase haspin (Homo sapiens) (UniProt Q8TF76); conditions: Compound concentration 1000.0 nM
[23] = target: Myosin light chain kinase 2, skeletal/cardiac muscle (Homo sapiens) (UniProt Q9H1R3); conditions: Compound concentration 1000.0 nM
Myosin light chain kinase 2, skeletal/cardiac muscle (Homo sapiens), sequence (Q9H1R3 whole entry): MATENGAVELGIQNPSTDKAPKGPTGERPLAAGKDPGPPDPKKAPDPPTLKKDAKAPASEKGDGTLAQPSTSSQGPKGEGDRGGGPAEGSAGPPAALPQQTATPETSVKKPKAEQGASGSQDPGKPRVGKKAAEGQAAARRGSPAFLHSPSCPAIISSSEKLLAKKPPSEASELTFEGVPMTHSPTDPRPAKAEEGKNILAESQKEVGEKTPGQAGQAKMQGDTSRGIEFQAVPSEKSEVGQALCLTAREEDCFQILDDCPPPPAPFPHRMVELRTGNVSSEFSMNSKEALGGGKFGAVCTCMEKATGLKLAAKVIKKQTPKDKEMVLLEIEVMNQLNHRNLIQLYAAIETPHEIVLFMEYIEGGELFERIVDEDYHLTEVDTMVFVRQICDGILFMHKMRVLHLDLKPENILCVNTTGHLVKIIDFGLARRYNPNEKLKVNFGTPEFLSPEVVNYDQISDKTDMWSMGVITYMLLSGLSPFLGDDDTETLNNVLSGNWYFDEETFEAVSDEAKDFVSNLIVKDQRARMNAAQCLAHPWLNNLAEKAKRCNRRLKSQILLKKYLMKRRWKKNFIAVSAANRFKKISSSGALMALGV

[24] = test system: Receptor-type tyrosine-protein kinase FLT3 (Homo sapiens), P36888 [UNDEFINED MUTATION]; conditions: Compound concentration 1000.0 nM
Receptor-type tyrosine-protein kinase FLT3 (Homo sapiens), P36888 [UNDEFINED MUTATION], sequence (P36888 whole entry, looked up, change not shown): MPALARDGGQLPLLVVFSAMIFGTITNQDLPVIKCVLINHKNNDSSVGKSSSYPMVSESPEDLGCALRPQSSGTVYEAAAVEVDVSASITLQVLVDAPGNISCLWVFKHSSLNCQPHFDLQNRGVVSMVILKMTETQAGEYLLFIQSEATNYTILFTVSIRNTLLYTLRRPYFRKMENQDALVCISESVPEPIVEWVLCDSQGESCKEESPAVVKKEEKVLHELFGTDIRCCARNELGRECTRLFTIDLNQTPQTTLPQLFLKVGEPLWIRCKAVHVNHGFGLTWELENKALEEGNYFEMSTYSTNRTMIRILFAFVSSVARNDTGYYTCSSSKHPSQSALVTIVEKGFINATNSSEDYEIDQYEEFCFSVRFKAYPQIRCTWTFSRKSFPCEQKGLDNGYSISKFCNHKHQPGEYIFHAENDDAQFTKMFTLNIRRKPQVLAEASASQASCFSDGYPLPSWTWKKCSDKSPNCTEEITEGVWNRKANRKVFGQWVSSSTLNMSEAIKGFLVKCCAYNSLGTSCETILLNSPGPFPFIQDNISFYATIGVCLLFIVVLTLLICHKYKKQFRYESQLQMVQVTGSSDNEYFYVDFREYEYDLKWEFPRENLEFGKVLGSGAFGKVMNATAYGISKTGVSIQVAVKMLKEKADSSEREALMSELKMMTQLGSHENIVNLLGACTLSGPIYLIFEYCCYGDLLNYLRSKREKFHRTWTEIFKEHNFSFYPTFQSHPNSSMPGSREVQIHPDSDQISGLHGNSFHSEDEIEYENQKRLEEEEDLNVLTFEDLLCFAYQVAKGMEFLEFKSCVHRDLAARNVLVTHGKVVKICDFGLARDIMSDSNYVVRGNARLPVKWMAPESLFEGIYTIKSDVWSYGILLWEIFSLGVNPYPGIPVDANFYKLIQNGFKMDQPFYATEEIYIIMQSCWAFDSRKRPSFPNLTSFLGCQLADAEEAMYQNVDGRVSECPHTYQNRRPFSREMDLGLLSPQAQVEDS

[25] = target: Serine/threonine-protein kinase PRP4 homolog (Homo sapiens) (UniProt Q13523); conditions: Compound concentration 1000.0 nM
[26] = target: Rhodopsin kinase GRK1 (Homo sapiens) (UniProt Q15835); conditions: Compound concentration 1000.0 nM
[27] = target: Serine/threonine-protein kinase SIK3 (Homo sapiens) (UniProt Q9Y2K2); conditions: Compound concentration 1000.0 nM
[28] = target: Receptor tyrosine-protein kinase erbB-3 (Homo sapiens) (UniProt P21860); conditions: Compound concentration 1000.0 nM
[29] = target: Dual specificity mitogen-activated protein kinase kinase 3 (Homo sapiens) (UniProt P46734); conditions: Compound concentration 1000.0 nM
[30] = target: Myosin-IIIa (Homo sapiens) (UniProt Q8NEV4); conditions: Compound concentration 1000.0 nM
[31] = target: Dual specificity protein kinase CLK1 (Homo sapiens) (UniProt P49759); conditions: Compound concentration 1000.0 nM
[32] = target: Hormonally up-regulated neu tumor-associated kinase (Homo sapiens) (UniProt P57058); conditions: Compound concentration 1000.0 nM
[33] = target: Citron Rho-interacting kinase (Homo sapiens) (UniProt O14578); conditions: Compound concentration 1000.0 nM
[34] = target: RAF proto-oncogene serine/threonine-protein kinase (Homo sapiens) (UniProt P04049); conditions: Compound concentration 1000.0 nM
[35] = target: LIM domain kinase 1 (Homo sapiens) (UniProt P53667); conditions: Compound concentration 1000.0 nM
[36] = target: Mitogen-activated protein kinase 10 (Homo sapiens) (UniProt P53779); conditions: Compound concentration 1000.0 nM
[37] = target: Serine/threonine-protein kinase Nek7 (Homo sapiens) (UniProt Q8TDX7); conditions: Compound concentration 1000.0 nM
Serine/threonine-protein kinase Nek7 (Homo sapiens), sequence (Q8TDX7 whole entry, looked up): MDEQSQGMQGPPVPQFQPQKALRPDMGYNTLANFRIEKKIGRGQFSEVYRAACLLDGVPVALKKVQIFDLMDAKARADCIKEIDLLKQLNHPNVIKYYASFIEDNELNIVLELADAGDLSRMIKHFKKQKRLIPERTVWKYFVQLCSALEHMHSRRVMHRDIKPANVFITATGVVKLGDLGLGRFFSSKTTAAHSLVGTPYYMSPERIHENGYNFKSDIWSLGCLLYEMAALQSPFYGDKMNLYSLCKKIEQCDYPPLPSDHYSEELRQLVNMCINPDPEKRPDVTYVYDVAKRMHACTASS

[38] = target: Mitogen-activated protein kinase kinase kinase 15 (Homo sapiens) (UniProt Q6ZN16); conditions: Compound concentration 1000.0 nM
Mitogen-activated protein kinase kinase kinase 15 (Homo sapiens), sequence (Q6ZN16 whole entry): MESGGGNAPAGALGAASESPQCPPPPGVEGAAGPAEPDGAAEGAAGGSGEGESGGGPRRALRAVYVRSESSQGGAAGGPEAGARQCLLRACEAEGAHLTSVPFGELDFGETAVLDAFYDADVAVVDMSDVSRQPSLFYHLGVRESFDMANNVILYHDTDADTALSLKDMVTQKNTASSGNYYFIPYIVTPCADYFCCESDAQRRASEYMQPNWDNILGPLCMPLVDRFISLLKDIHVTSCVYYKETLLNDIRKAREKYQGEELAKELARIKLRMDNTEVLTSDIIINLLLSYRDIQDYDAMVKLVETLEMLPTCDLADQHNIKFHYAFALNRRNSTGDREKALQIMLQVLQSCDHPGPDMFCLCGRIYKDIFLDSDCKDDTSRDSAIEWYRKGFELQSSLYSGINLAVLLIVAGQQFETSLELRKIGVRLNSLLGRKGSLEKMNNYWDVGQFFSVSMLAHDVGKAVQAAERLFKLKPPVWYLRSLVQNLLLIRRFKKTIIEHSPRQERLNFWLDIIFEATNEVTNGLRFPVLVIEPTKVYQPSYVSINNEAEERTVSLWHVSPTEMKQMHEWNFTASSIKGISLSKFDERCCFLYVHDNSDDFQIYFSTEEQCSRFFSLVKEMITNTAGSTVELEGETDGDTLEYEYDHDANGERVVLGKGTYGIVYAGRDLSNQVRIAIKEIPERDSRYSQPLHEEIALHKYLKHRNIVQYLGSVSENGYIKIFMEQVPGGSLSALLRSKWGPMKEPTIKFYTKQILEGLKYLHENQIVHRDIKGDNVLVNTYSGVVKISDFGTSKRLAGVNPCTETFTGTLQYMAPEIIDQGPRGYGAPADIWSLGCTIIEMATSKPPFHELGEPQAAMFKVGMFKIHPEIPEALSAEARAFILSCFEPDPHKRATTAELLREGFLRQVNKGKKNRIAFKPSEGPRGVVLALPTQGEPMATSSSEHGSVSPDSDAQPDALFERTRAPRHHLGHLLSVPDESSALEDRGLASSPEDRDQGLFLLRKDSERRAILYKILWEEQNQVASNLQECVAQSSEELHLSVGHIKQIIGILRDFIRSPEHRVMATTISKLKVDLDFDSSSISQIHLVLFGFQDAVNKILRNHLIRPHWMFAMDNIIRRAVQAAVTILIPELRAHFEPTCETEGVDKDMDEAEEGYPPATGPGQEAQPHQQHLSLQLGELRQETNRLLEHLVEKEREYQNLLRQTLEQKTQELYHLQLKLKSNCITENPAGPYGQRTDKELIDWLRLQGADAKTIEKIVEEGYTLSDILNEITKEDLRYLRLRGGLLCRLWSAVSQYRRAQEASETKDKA

[39] = test system: Serine/threonine-protein kinase B-raf (Homo sapiens), P15056 [V600E]; conditions: Compound concentration 1000.0 nM

C[C@H](c1ccc(F)cc1)N(Cc1cccc(C(=O)O)c1)C(=O)c1cnc2ccccc2c1 [PF-05105679]
inactive: residual activity [1] 100% | residual activity [2] 100% | residual activity [3] 93% | residual activity [4] 94% | residual activity [5] 93% | inhibition [6] -1.68% | inhibition [7] 20.2% | residual activity [8] 100% | residual activity [9] 92% | residual activity [10] 100% | inhibition [11] 3.68% | residual activity [12] 89% | residual activity [13] 100% | inhibition [14] 20% | residual activity [15] 100% | residual activity [16] 95% | residual activity [17] 95% | residual activity [18] 100% | residual activity [19] 100% | residual activity [20] 76% | residual activity [21] 100% | residual activity [22] 100% | residual activity [23] 100% | residual activity [24] 100% | residual activity [25] 100% | residual activity [26] 100% | residual activity [27] 80% | residual activity [28] 68% | residual activity [29] 91% | residual activity [30] 100% | residual activity [31] 91% | residual activity [32] 100% | residual activity [33] 100% | residual activity [34] 100% | residual activity [35] 100% | residual activity [36] 82% | residual activity [37] 100% | residual activity [38] 100% | residual activity [39] 100%
